According to patent US20260364184A1, “COMPOUND BASED ON OXOISOINDOLINYL-SUBSTITUTED TETRAHYDROPYRIMIDINE-DIONE AND USE THEREOF” (GLUETACS THERAPEUTICS (SHANGHAI) CO., LTD., priority 2023, published 2026):

How the values were obtained:
AKT = experiment: Western blot degradation of AKT; type: cell-based; details: hPBMC Cell; 24 hours
Description: Conventional Western blot assay was performed to evaluate the effects of the compounds of the present disclosure on the expression of target proteins in cells.
(1) Cell Seeding and Protein Harvesting: The selected cells were processed according to the cell seeding procedure and protein harvesting procedure in Table II-2.
(2) To the collected supernatant, 5×SDS sample loading buffer was added, followed by denaturation at 95 °C for 5 minutes. The denatured samples were then separated by SDS-PAGE electrophoresis on a polyacrylamide gel. Proteins were transferred to a nitrocellulose membrane (0.45 μm NC membrane), blocked with blocking buffer at room temperature for 1 hour, and subjected to antibody incubation and development procedures according to the antibody manufacturer's instructions (Cell Signaling Technology).
Half-Maximal Degradation Concentration value (the drug concentration required for degrading proteins by 50%, abbreviated as DC50) reads method: comparing the grayscale values of Western blot bands from drug-treated samples with those from blank DMSO-treated controls, and identifying the drug concentration range at which the grayscale value is half that of the DMSO-treated control bands.
DC50 values can be calculated using ImageJ software to measure grayscale values of Western blot bands from drug-treated samples. The concentration-response curve is fitted to estimate the drug concentration corresponding to half the grayscale value.
Target protein remaining (%) refers to the percentage of target protein remaining in cells after treatment with protein degrader compounds.
Calculation method for target protein remaining (%): Use ImageJ software to measure grayscale values of Western blot bands from drug (protein degrader)-treated samples. The grayscale value of drug-treated bands is divided by that of internal control protein bands, and the resulting quotient is normalized to obtain the relative percentage of remaining target protein after protein degrader treatment.
Target protein degradation rate (%)=1−target protein remaining (%).

[1] = test system: Human malignant melanoma cell line (A375); experiment: Inhibition of A375 cell proliferation (CellTiter luminescent viability); details: A-375, Table III (II1), EZH2 inhibitor-based, 96 hours; for inhibition at 0.01 µM: A375, 10 nM, read-out: Inhibition Rate at 10 nM (%); for inhibition at 0.5 µM: A375, 500 nM, read-out: Inhibition Rate at 500 nM (%)
Description: (§1) The tumor cells used herein were cultured in a cell culture medium listed in table 3 at 37 °C in an incubator with 5% CO2. Prior to experimentation, all cell lines used were correctly identified by STR profiling, and tested negative for mycoplasma contamination using a mycoplasma detection kit through routine screenings.
(§2) The IC50 values of the compounds of the present disclosure (including the compounds in Table 1, Table 2, and Examples 1-468) were determined using the CellTiter-Meiluncell Luminescent Cell Viability Assay Kit from Dalian Meilun Biotech Co., Ltd. The detailed procedure is as follows: Tumor cells were seeded in 96-well cell culture plates at the densities specified in Table 4. On the following day, the test compounds of the present disclosure were subjected to serial dilution. The dilution can be performed according to one of the following two methods: • (1) The first dilution method: The test compounds of the present disclosure (including the compounds in Table 1, Table 2, and Examples 1-468) were subjected to 5-fold serial dilutions starting from a highest concentration of 2000 μM, resulting in a total of 9 concentrations from high to low (2000, 400, 80, 16, 3.2, 0.64, 0.128, 0.0256, 0.00512 μM). Subsequently, 0.5 μL of the test compound dilution was transferred into the 96-well plate containing the cells, with each well containing 100 μL of cell culture medium. […] Into the 96-well plate, the diluted test compounds and corresponding detection reagents were added, resulting in final test compound concentrations of 500 nM and 10 nM, respectively. The experimental procedure is described below using the diluted 2 μM test compound as an example.
(§3) 0.5 μL of the aforementioned diluted compound of the present disclosure (including the compounds in Table 1, Table 2, and Examples 1-468) was added to the seeded cells in 100 μL of medium, yielding a final test compound concentration of 10 nM. After the cells were treated with the compounds of the present disclosure for a specified period, the cell viability assay reagent was added to the culture medium according to the kit's instructions to determine cell viability. […] All controls were treated using the same procedure as the compounds of the present disclosure. The growth inhibition curves for the compounds of the present disclosure were plotted using Prism GraphPad software, and the IC50 values were calculated therefrom.

[2] = test system: Human neuroblastoma cell line (SK-N-AS); experiment: Inhibition of SK-N-AS cell proliferation (CellTiter luminescent viability); type: cell-based; details: Table II2, EZH2 inhibitor-based, 96 hours
Description: as §1, §2, §3

Row | Compound | Degradation of substrate protein AKT (substrate protein remaining %) (AKT) | inhibition at 0.01 µM [1] [%] | inhibition at 0.5 µM [1] [%] | other results
1 | Cn1ncc(Cl)c1-c1cc(C(=O)N[C@H](CNCC2CCN(c3ccc4c(c3)C(=O)N(N3CCC(=O)NC3=O)C4=O)CC2)Cc2cccc(F)c2)sc1Cl [GT-08582, (S)-5-chloro-4-(4-chloro-1-methyl-1H-pyrazol-5-yl)-N-(1-(((1-(2-(2,4-dioxotetrahydropyrimidin-1(2H)-yl)-1,3-dioxoisoindolin-5-yl)piperidin-4-yl)methyl)amino)-3-(3-fluorophenyl)propan-2-yl)thiophene-2-carboxamide] | A (0%≤substrate protein remaining %≤80%) | – | – | –
2 | Cn1ncc(Cl)c1-c1cc(C(=O)N[C@H](CNCc2ccc3c(c2)CN(N2CCC(=O)NC2=O)C3=O)Cc2cccc(F)c2)sc1Cl [GT-08572, (S)-5-chloro-4-(4-chloro-1-methyl-1H-pyrazol-5-yl)-N-(1-(((2-(2,4-dioxotetrahydropyrimidin-1(2H)-yl)-1-oxoisoindolin-5-yl)methyl)amino)-3-(3-fluorophenyl)propan-2-yl)thiophene-2-carboxamide] | A (0%≤substrate protein remaining %≤80%) | – | – | –
3 | Nc1ncccc1-c1nc2ccc(-c3ccccc3)nc2n1-c1ccc(C2(NCc3ccc4c(c3)CN(N3CCC(=O)NC3=O)C4=O)CCC2)cc1 [GT-08573, 1-(5-(((1-(4-(2-(2-aminopyridin-3-yl)-5-phenyl-3H-imidazo[4,5-b]pyridin-3-yl)phenyl)cyclobutyl)amino)methyl)-1-oxoisoindolin-2-yl)dihydropyrimidine-2,4 (1H,3H)-dione] | A (0%≤substrate protein remaining %≤80%) | – | – | –
4 | Nc1ncccc1-c1nc2ccc(-c3ccccc3)nc2n1-c1ccc(C2(NCC3CCN(c4ccc5c(c4)C(=O)N(N4CCC(=O)NC4=O)C5=O)CC3)CCC2)cc1 [GT-08583, 5-(4-(((1-(4-(2-(2-aminopyridin-3-yl)-5-phenyl-3H-imidazo[4,5-b]pyridin-3-yl)phenyl)cyclobutyl)amino)methyl)piperidin-1-yl)-2-(2,4-dioxotetrahydropyrimidin-1(2H)-yl)isoindoline-1,3-dione] | A (0%≤substrate protein remaining %≤80%) | – | – | –
5 | Cn1ncc(Cl)c1-c1cc(C(=O)N[C@@H](Cc2cccc(F)c2)CN2CCN(Cc3ccc4c(c3)C(=O)N(N3CCC(=O)NC3=O)C4=O)CC2)sc1Cl [GT-08581, (S)-5-chloro-4-(4-chloro-1-methyl-1H-pyrazol-5-yl)-N-(1-(4-((2-(2,4-dioxotetrahydropyrimidin-1(2H)-yl)-1,3-dioxoisoindolin-5-yl)methyl)piperazin-1-yl)-3-(3-fluorophenyl)propan-2-yl)thiophene-2-carboxamide] | A (0%≤substrate protein remaining %≤80%) | – | – | –
6 | Nc1ncccc1-c1nc2ccc(-c3ccccc3)nc2n1-c1ccc(C2(NCc3ccc4c(c3)C(=O)N(N3CCC(=O)NC3=O)C4=O)CCC2)cc1 [GT-08578, 5-(((1-(4-(2-(2-aminopyridin-3-yl)-5-phenyl-3H-imidazo[4,5-b]pyridin-3-yl)phenyl)cyclobutyl)amino)methyl)-2-(2,4-dioxotetrahydropyrimidin-1(2H)-yl)isoindoline-1,3-dione] | A (0%≤substrate protein remaining %≤80%) | – | – | –
7 | CCN(c1cc(-c2ccc(CN3CCN(Cc4ccc5c(c4)CN(N4CCC(=O)NC4=O)C5=O)CC3)cc2)cc(C(=O)NCc2c(C)cc(C)[nH]c2=O)c1C)C1CCOCC1 [GT-08508, N-((4,6-dimethyl-2-oxo-1,2-dihydropyridin-3-yl)methyl)-4′-((4-((2-(2,4-dioxotetrahydropyrimidin-1(2H)-yl)-1-oxoisoindolin-5-yl)methyl)piperazin-1-yl)methyl)-5-(ethyl(tetrahydro-2H-pyran-4-yl)amino)-4-methyl-[1,1′-biphenyl]-3-carboxamide] | – | 20 to 30 | 20 to 30 | –
8 | CCCc1cc(C)[nH]c(=O)c1CNC(=O)c1cc(-c2ccc(N3CCN(CC4CCN(c5ccc6c(c5)C(=O)N(N5CCC(=O)NC5=O)C6=O)CC4)CC3)nc2)cc2c1cnn2C(C)C [GT-08516, 6-(6-(4-((1-(2-(2,4-dioxotetrahydropyrimidin-1(2H)-yl)-1,3-dioxoisoindolin-5-yl)piperidin-4-yl)methyl)piperazin-1-yl)pyridin-3-yl)-1-isopropyl-N-((6-methyl-2-oxo-4-propyl-1,2-dihydropyridin-3-yl)methyl)-1H-indazole-4-carboxamide] | – | 20 to 30 | 20 to 30 | –
9 | Cn1ncc(Cl)c1-c1cc(C(=O)N[C@@H](Cc2cccc(F)c2)CN2CCN(CC3CCN(c4ccc5c(c4)C(=O)N(N4CCC(=O)NC4=O)C5=O)CC3)CC2)sc1Cl [GT-08586, (S)-5-chloro-4-(4-chloro-1-methyl-1H-pyrazol-5-yl)-N-(1-(4-((1-(2-(2,4-dioxotetrahydropyrimidin-1(2H)-yl)-1,3-dioxoisoindolin-5-yl)piperidin-4-yl)methyl)piperazin-1-yl)-3-(3-fluorophenyl)propan-2-yl)thiophene-2-carboxamide] | A (0%≤substrate protein remaining %≤80%) | – | – | –
10 | CCN(c1cc(-c2ccc(N3CCN(C4CCN(Cc5ccc6c(c5)C(=O)N(N5CCC(=O)NC5=O)C6=O)CC4)CC3)cc2)cc(C(=O)NCc2c(C)cc(C)[nH]c2=O)c1C)C1CCOCC1 [GT-08515, N-((4,6-dimethyl-2-oxo-1,2-dihydropyridin-3-yl)methyl)-4′-(4-(1-((2-(2,4-dioxotetrahydropyrimidin-1(2H)-yl)-1,3-dioxoisoindolin-5-yl)methyl)piperidin-4-yl)piperazin-1-yl)-5-(ethyl(tetrahydro-2H-pyran-4-yl)amino)-4-methyl-[1,1′-biphenyl]-3-carboxamide] | – | 20 to 30 | 20 to 30 | inhibition at 0.01 µM ([2]; 10 nM, read-out: Inhibition Rate at 10 nM (%)): 20 to 30%; inhibition at 0.5 µM ([2]; 500 nM, read-out: Inhibition Rate at 500 nM (%)): 20 to 30%
11 | CCN(c1cc(-c2ccc(CN3CCOCC3)cc2)cc(C(=O)NCc2c(C)cc(C)[nH]c2=O)c1C)C1CCOCC1 [Tazemetostat, reference compound] | – | 0 to 5 | 0 to 5 | –
12 | CCN(c1cc(-c2ccc(CN3CCN(CC4CCN(c5ccc6c(c5)C(=O)N(N5CCC(=O)NC5=O)C6=O)CC4)CC3)cc2)cc(C(=O)NCc2c(C)cc(C)[nH]c2=O)c1C)C1CCOCC1 [GT-08518, N-((4,6-dimethyl-2-oxo-1,2-dihydropyridin-3-yl)methyl)-4′-((4-((1-(2-(2,4-dioxotetrahydropyrimidin-1(2H)-yl)-1,3-dioxoisoindolin-5-yl)piperidin-4-yl)methyl)piperazin-1-yl)methyl)-5-(ethyl(tetrahydro-2H-pyran-4-yl)amino)-4-methyl-[1,1′-biphenyl]-3-carboxamide] | – | 20 to 30 | 20 to 30 | –
13 | Cn1ncc(Cl)c1-c1cc(C(=O)N[C@@H](Cc2ccc(F)c(F)c2)CN2CCN(Cc3ccc4c(c3)C(=O)N(N3CCC(=O)NC3=O)C4=O)CC2)oc1Cl [GT-08580, (S)-5-chloro-4-(4-chloro-1-methyl-1H-pyrazol-5-yl)-N-(1-(3,4-difluorophenyl)-3-(4-((2-(2,4-dioxotetrahydropyrimidin-1(2H)-yl)-1,3-dioxoisoindolin-5-yl)methyl)piperazin-1-yl)propan-2-yl) furan-2-carboxamide] | A (0%≤substrate protein remaining %≤80%) | – | – | –
